Entries after “also recorded” stand apart in the source; their conditions may differ.
How the values were obtained:
[1] = 400° F. (204.4° C.), reported in U.S. Pat. No. 3,770,640; cited from earlier work
[2] = Sealed tube test of stability of dyes in refrigerant/refrigeration oil with metal coupons; assay type: physicochemical
Method: By reference to Table I below it can be appreciated that such ortho substitution has a remarkably beneficial effect on the stability of the dyes in the accelerated sealed tube test used for evaluation. The first three dyes listed, embodying the principles of this invention, routinely withstand in excess of twenty days in the sealed tube test at 350° F. (176.7° C.), equivalent to many years of normal use in a refrigeration system.
The sealed tube test serves as a method of evaluating in an accelerated manner interactions of materials found in a refrigeration system.
Glass tubes and all metal test coupons are scrupulously cleaned. Test refrigerants are distilled to minimize moisture contamination. Moisture is removed from the refrigeration test oil "Suniso" 3GS by subjecting the oil to a vacuum with slight stirring and heating. Ratios of refrigerant/refrigerant oil range from 1:1 to 1:2 by weight.
Refrigerant oil and representative metal coupons of copper #10AWG wire, Swedish valve stock steel, and aluminum metal sheet are placed in a glass tube along with the subject test dye material (0.25-1.0% wt/wt) dissolved in the refrigerant oil. Like samples without the subject dye are analyzed as controls.
The tube and its contents are chilled in a liquid nitrogen bath while the refrigerant is condensed into the tube via a calibrated manometer. The tube is sealed under a vacuum of at least 0.1 torr.
Glass tubes and contents are subjected to uniform heating in a bored aluminum block placed in a temperature-programmed oven.
The oven temperatures used vary according to the test refrigerant, as indicated:
The test is run for one of the following time periods: 5, 14, 21, 30 or 60 days.
The tube contents may be evaluated by several methods:
of these methods, the visual examination is the most rapid and the only qualitative method. Any color change in the subject dye coloration is noted when compared to a control sample.
The quantitative methods involve analysis for decomposition products of chloride as hydrochloric acid or organic products by gas chromatography, infrared spectroscopy, or mass spectroscopy. However, visual inspection and gas chromatography are widely used, and they were selected as standardization procedures for evaluation of sealed tube contents.
R-12 is chemically one of the more reactive refrigerants; thus, short term tests with refrigeration liquids containing this refrigerant admixed with a mineral oil yield the most rapid results. R-22 and R-502 are also used but the decomposition products are more difficult to analyze by gas chromatography. Ultimately the test material must pass interactions involving any of these refrigerants. The visual method can be used empirically on a pass-fail basis. As verified experimentally, visual results are considered as valid as instrumental methods.

[3] = Solubility of dyes in halocarbon refrigerants; assay type: physicochemical
Method: Solubilities of various dyes in various halocarbon refrigerants were also determined according to the following standardized procedure. […] The R-11 was allowed to vaporize, leaving a known amount of dye in the bottom portion of the test tube. The tube was then attached to a charging apparatus containing a supply of a given halocarbon refrigerant and various amounts of the refrigerant were charged into the tube while chilling the latter by immersion in liquid nitrogen. The tube containing the dye/refrigerant mixture was sealed under vacuum, allowed to reach room temperature (about 21° C.) and rotated for several hours. Visual inspection of the tube was made at several temperatures to note the degree of dissolution. The procedure was improved over previously used methods in that an exact predetermined amount of dye and refrigerant were made to interact, requiring fewer weighings. Finally, it became possible to use the same tube to check solubility at several different temperatures.

[4] = Solubility of dyes in refrigeration oils; details: for Dye Solubility in refrigeration oil: room temperature (about 21° C.)
Method: Manufacturers of refrigeration equipment generally demand that any refrigeration liquid satisfactorily pass such a sealed tube test before they approve the liquid for use in their equipment. In addition, the solubility of the various dyes in oil and in refrigerant were determined.
Solubility of various dyes in various refrigeration oils was carefully determined according to the following standardized procedure. An excess of the subject dye was added to a given weight (e.g., 100 g) of refrigerant oil. The mixture was stirred for one-half hour with mild heating, whereupon it was cooled to room temperature (about 21° C.) and transferred to a centrifuge tube. The mixture was centrifuged approximately 15 minutes at 1000 rpm. A sample of the supernatant liquid was decanted (1.00 g±0.01 g) and diluted to 100 ml volume with methylene chloride. Aliquot portions were taken and read against the principal absorption peaks by visible light spectroscopy. Wt/wt percentage concentrations were then calculated from proper standard curves.

For `CCc1cc(CC)c(Nc2ccc(Nc3c(CC)cc(CC)cc3CC)c3c2C(=O)c2ccccc2C3=O)c(CC)c1` [1,4-bis(2,4,6-triethylanilino)anthraquinone], the “stability in the sealed tube test at 400° F. (in words)” value [1] is given as “very unstable; also recorded: so poor as to make this dye commercially unacceptable”.
With `CCc1cccc(C)c1Nc1ccc(Nc2c(C)cccc2CC)c2c1C(=O)c1ccccc1C2=O` [Dye No. 1-35, 1,4-bis(2-methyl-6-ethylanilino)anthraquinone] the “stability in the sealed tube test at 402° F. (in words)” value ([2]; 402° F. (205.5° C.), compared with 350° F.) was “virtually as stable at 402° F. (205.5° C.) as it is at 350° F. (176.7° C.); also recorded: excellent stability of dye No. 1-35 persists even at much higher test temperatures”, the “Mean Life, Days at 350° F.” value ([2]; Sample C, purity 97%) was 24.0 days and the “Mean Life, Days at 350° F.” value ([2]; Sample D, purity 95%) was 24.0 days. The “Mean Life, Days at 350° F.” value ([2]; Sample E, purity 89%) was 17.0 days, the “Mean Life, Days at 350° F.” value ([2]; Sample F, purity 65%) was 5.0 days and the “Mean Life, Days at 350° F.” value ([2]; Samples A and B, purity 100% (by definition)) was 26.2 days. The “Stability, Mean Life” value ([2]; Table I, sealed tube data in R-12 at 350° F.) was 26.2 days, the “stability as measured by the sealed tube test” value ([2]; text summary of Table I, 350° F.) was over 20 days and the “solubility in the halocarbon refrigerant (in words)” value [3] was “sufficient solubility; also recorded: substantially greater solubility in the various refrigerants than the other dyes tested”. For the same compound, the Solubility in refrigerant ([3]; R-11, 21° C.) was 0.2 %(wt/wt), the Solubility in refrigerant ([3]; R-12, 0° C.) was 0.2 %(wt/wt) and the Solubility in refrigerant ([3]; R-12, 21° C.) was 0.2 %(wt/wt). The Solubility in refrigerant ([3]; R-12, -20° C.) was 0.2 %(wt/wt), the Solubility in refrigerant ([3]; R-22, 0° C.) was 0.4 %(wt/wt) and the Solubility in refrigerant ([3]; R-22, 21° C.) was 0.4 %(wt/wt). For the same compound, the Solubility in refrigerant ([3]; R-22, -20° C.) was 0.4 %(wt/wt), the Solubility in refrigerant ([3]; R-502, 0° C.) was < 0.1 %(wt/wt) and the Solubility in refrigerant ([3]; R-502, 21° C.) was 0.1 %(wt/wt). The Solubility in refrigerant ([3]; R-502, -20° C.) was < 0.1 %(wt/wt), the “Refr. Sol. In R-12” value ([3]; Table I, refrigerant R-12) was 0.2% and the “solubility in the refrigeration oil (in words)” value [4] was “relatively high solubility”. For the same compound, the “Dye Solubility in refrigeration oil” value ([4]; DuPont Zephron 150 (alkyl benzene type)) was 5.3 %(wt/wt), the “Dye Solubility in refrigeration oil” value ([4]; Suniso 3GS) was 4.8 %(wt/wt) and the “Dye Solubility in refrigeration oil” value ([4]; Suniso 4GS) was 4.6 %(wt/wt). For the same compound, the “Dye Solubility in refrigeration oil” value ([4]; Suniso 5GS) was 4.8 %(wt/wt), the “Oil Sol. In 3GS” value ([4]; Table I, Suniso 3GS refrigeration oil) was 4.8% and the “Dye Solubility in refrigeration oil” value ([4]; Texaco Cappella D) was 4.8 %(wt/wt). The “Dye Solubility in refrigeration oil” value ([4]; Texaco Cappella E) was 4.9 %(wt/wt) and the “solubility in representative naphthenic and alkyl benzene refrigeration oils” value ([4]; summary of Table II) was “about 5%”.

— patent publication US4369120A, “Refrigeration liquid with leak indicator and process of using same” (priority 1981, dated 1983)
